The structures appear in SMILES notation. pIC50: −log10 of the molar value. “And” between values parts separate entries of the source, which are not always exact repeats. Equal entries are not always repeated. Where only a bound is given, the exact number is not on record here.

This test has as its system 171881-019-R-J1-PDC tumor spheroids, viability. Briefly: Anticancer human tumor 171881-019-R-J1-PDC patient-derived invasive breast carcinoma cell line growth inhibition [GQUAD]. The settings on record: spheroids with HUVEC and MSC; for viability, T/C: stronger effect = lower value. An excerpt:
DNA G-quadruplex Stabilizer Agents in Combinations in Complex Spheroids
A high-throughput screen of multi-cell type tumor spheroids was designed to identify active combinations of DNA G-quadruplex stabilizer agents and targeted small molecules. Complex spheroids include a stromal component modeled by human endothelial cells (HUVEC) and fibroblasts modeled by human mesenchymal stem cells (MSCs). The concentration ranges selected for each drug and investigational agent were based upon clinically achievable concentrations if the clinical Cmax of the agent was known.
Compounds. The drugs and investigational agents: pidnarulex (CX-5461; NSC782164), APTO-253 (NSC789042), BRACO-19 (NSC847499), peposertib (NSC802822), ceralasertib (NSC780249), elimusertib (NSC800525), camonsertib (NSC841442), AZD-1390 (NSC803789), olaparib (NSC753686), talazoparib (NSC767125), ART-558 (NSC835418), sotorasib (NSC818433), MRTX-1133 (NSC836407), SN-38 (NSC673596), topotecan (NSC609699), etoposide (NSC141540), doxorubicin (NSC123127), gemcitabine (NSC613327), 5-fluorouracil (NSC19893), paclitaxel (NSC125973), vemurafenib (NSC761431), panobinostat (NSC761190), R-306465 (JNJ-16241199; NSC773264), adavosertib (NSC754352), TP-3654 (NSC805149), carboplatin (NSC241240), KSQ-4279 (NSC840948), and staurosporine (NSC755774) were obtained from the National Cancer Institute (NCI) Developmental Therapeutics Program Chemical Repository (34). The FDA-approved anticancer drug set is available from the NCI Developmental Therapeutics Program. […] The stock solutions were prepared in dimethyl sulfoxide (DMSO, Sigma-Aldrich, St. Louis, MO, cat. D2650) at 800-fold the tested concentration and stored at -70 degrees C prior to their use. All drugs and investigational agents were tested over a range starting from a high concentration at or near the clinical Cmax and decreasing in half-log increments. If the clinical Cmax for an agent had not been determined, the highest concentration tested was 10 microM.
2.3 Cell Culture. All cells were maintained in an incubator at 37 degrees C and 5% CO2 with 95% humidity. The PDC lines were cultured according to standard operating procedures established by the NCI PDMR. All PDCs were thawed and cultured in Matrigel-coated flasks prepared with a working solution of 1X Ham's F-12 nutrient mix, without supplementation (Invitrogen, cat. 11765054), 100 U/mL penicillin-streptomycin (Invitrogen, cat. 15140122), and 2.5% Matrigel (Corning Inc., cat. 354248) for the first three passages. The 857933-349-R-J2-PDC line was cultured in 6C/Colon 1B media, which includes advanced DMEM/F-12 (Thermo Fisher Scientific, cat. 12634028), 10 mM HEPES (Thermo Fisher Scientific, cat. 15630080), 1X GlutaMAX supplement (Thermo Fisher Scientific, cat. 35050061), 0.1 mg/mL primocin (InvivoGen, cat. ant-pm-2), 10% defined fetal bovine serum, heat inactivated (HyClone Laboratories Inc., cat. SH30070.03HI), 50% L-WRN conditioned media (ATCC, cat. CRL-3276), 1.25 mM N-Acetyl-L-cysteine (Sigma-Aldrich, cat. A9165), 10 mM nicotinamide (Sigma-Aldrich, cat. N0636), 1X B-27 supplement (Thermo Fisher Scientific, cat. 17504044), 1X N-2 supplement (Thermo Fisher Scientific, cat. 17502048), 10 microM Y-27632 dihydrochloride (Tocris Bioscience, cat. 1254), and 50 ng/mL human EGF recombinant protein (Thermo Fisher Scientific, cat. PHG0311). The 485176-168-R4-J1-PDC line was cultured in Panc media, which includes all 6C/Colon 1B media components plus 100 ng/mL human FGF-10 (Thermo Fisher Scientific, cat. 100-26), 500 nM SB-431542 (Selleckchem, cat. S1067), and gastrin (Tocris, cat. 3006).
[…]
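Note: spheroids exposed to compounds for 7 days.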

As to `CC(C)(O)C1CCC(Nc2ccc3ncc(-c4cccc(C(F)(F)F)c4)n3n2)CC1` (stereo not given) + Cc1[nH]c2ccc(F)cc2c1-c1nc2c3cccnc3c3ncccc3c2[nH]1, the pIC50 was 5.74 (curve of first compound, second compound 0.0316 µM); 5.74 (curve of first compound, second compound 0.1 µM); 5.86 (curve of first compound, second compound 0.316 µM); 6.21 (curve of first compound, second compound 1 µM); over 7.50 (curve of first compound, second compound 3.16 µM); over 7.50 (curve of first compound, second compound 10 µM). For the same compound, the viability, T/C was 94.8% (second compound 0.0316 µM, first compound 0.0316 µM); 104% (second compound 0.0316 µM, first compound 0.1 µM); 88.4% (second compound 0.0316 µM, first compound 0.316 µM); 74.5% (second compound 0.0316 µM, first compound 1 µM); 23.8% (second compound 0.0316 µM, first compound 3.16 µM); 32% (second compound 0.0316 µM, first compound 10 µM). The viability, T/C is 99.5% (second compound 0.1 µM, first compound 0.0316 µM); 96.7% (second compound 0.1 µM, first compound 0.1 µM); 97.8% (second compound 0.1 µM, first compound 0.316 µM); 73.5% (second compound 0.1 µM, first compound 1 µM); 25.4% (second compound 0.1 µM, first compound 3.16 µM); 31.1% (second compound 0.1 µM, first compound 10 µM). Besides, the viability, T/C by setting is: (second compound 0.316 µM, first compound 0.0316 µM) 78.7%; (second compound 0.316 µM, first compound 0.1 µM) 71.6%; (second compound 0.316 µM, first compound 0.316 µM) 66.2%; (second compound 0.316 µM, first compound 1 µM) 60%; (second compound 0.316 µM, first compound 3.16 µM) 24%; (second compound 0.316 µM, first compound 10 µM) 25.4%. Also, the viability, T/C by setting is: (second compound 1 µM, first compound 0.0316 µM) 63.6%; (second compound 1 µM, first compound 0.1 µM) 47.6%; (second compound 1 µM, first compound 0.316 µM) 58.8%; (second compound 1 µM, first compound 1 µM) 45.2%; (second compound 1 µM, first compound 3.16 µM) 16.4%; (second compound 1 µM, first compound 10 µM) 10.9%. Moreover, the viability, T/C (second compound 3.16 µM, first compound 0.0316 µM) was 6.94%; the viability, T/C (second compound 3.16 µM, first compound 0.1 µM) was 4.45%; the viability, T/C (second compound 3.16 µM, first compound 0.316 µM) was 5.15%; the viability, T/C (second compound 3.16 µM, first compound 1 µM) is 3.84%; the viability, T/C (second compound 3.16 µM, first compound 3.16 µM) is 2.07%; the viability, T/C (second compound 3.16 µM, first compound 10 µM) was 0.75%. The viability, T/C is 36.5% (second compound 10 µM, first compound 0.0316 µM); 42% (second compound 10 µM, first compound 0.1 µM); 28.6% (second compound 10 µM, first compound 0.316 µM); 24.1% (second compound 10 µM, first compound 1 µM); 5.07% (second compound 10 µM, first compound 3.16 µM); 3.8% (second compound 10 µM, first compound 10 µM).
In the case of `CC(C)(O)C1CCC(Nc2ccc3ncc(-c4cccc(C(F)(F)F)c4)n3n2)CC1` (stereo not given), the viability, T/C is, setting by setting: (compound 0.0316 µM) 94.5% and 97.7% and 83.7%; (compound 0.1 µM) 103% and 88.9% and 87.9%; (compound 0.316 µM) 90% and 92.4% and 78.3%; (compound 1 µM) 74.2% and 75.5% and 74.3%; (compound 3.16 µM) 25.5% and 27.5% and 22.3%; (compound 10 µM) 33.8% and 31.2% and 26.3%. Also, for the setting “curve of compound”, the pIC50 is 5.73 and 5.72 and 5.76.
For the compound `O=C(c1cc(Cc2n[nH]c(=O)c3ccccc23)ccc1F)N1CCN(C(=O)C2CC2)CC1`, the viability, T/C (compound 0.0316 µM) is 96.1% and 101% and 87.5%; the viability, T/C (compound 0.1 µM) was 94.4% and 97.5% and 96.8%; the viability, T/C (compound 0.316 µM) was 94.5% and 105% and 103%; the viability, T/C (compound 1 µM) was 103% and 101% and 96.6%; the viability, T/C (compound 3.16 µM) was 100% and 97.8% and 95.5%; the viability, T/C (compound 10 µM) was 89.8% and 88.3% and 89.4%. In addition, under “curve of compound”, the pIC50 was under 5.00.
On to `CC(C)n1c(=O)n(C)c2cnc3cc(F)c(-c4ccc(OCCCN5CCCCC5)nc4)cc3c21`, for which the viability, T/C (compound 0.0316 µM) is 93.2% and 98.1% and 85.8%; the viability, T/C (compound 0.1 µM) is 95.7% and 88.2% and 81.6%; the viability, T/C (compound 0.316 µM) was 96.2% and 94.4% and 102%; the viability, T/C (compound 1 µM) was 74.8% and 82.3% and 78.2%; the viability, T/C (compound 3.16 µM) is 55.2% and 38.8% and 51.6%; the viability, T/C (compound 10 µM) was 20.5% and 11.7% and 18.7%. In addition, the pIC50 (curve of compound) was 5.44 and 5.63 and 5.49.
For `Cc1cnc(CNC(=O)c2c(=O)c3ccc(N4CCCN(C)CC4)nc3n3c2sc2ccccc23)cn1`, the viability, T/C was 94.3% [middle of 12 runs] (compound 0.0316 µM); 85.4% [middle of 12 runs] (compound 0.1 µM); 76% [middle of 12 runs] (compound 0.316 µM); 70.7% [middle of 11 runs] (compound 1 µM); 65% [middle of 12 runs] (compound 3.16 µM); 62.7% [middle of 12 runs] (compound 10 µM). Moreover, the pIC50 (compound alone, run of 02/20/2024) is under 5.00.

By pIC50 is commonly meant the negative decadic logarithm of the IC50, by convention in mol/L. Broadly, the viability, T/C is the ratio of treated to control.

(Values after PubChem BioAssay AID2060498 (Molecular Pharmacology Branch, DTP, NCI, 2025).)
